This is an account of results in PMC9219824, “Antiplasmodial Cyclodecapeptides from Tyrothricin Share a Target with Chloroquine” (Antibiotics, 2022).

One test relates to CQI P. falciparum D10. Particulars: for nature of CQ-peptide interaction: at the lowest CQ ratio, D10. The method, then: In order to determine the nature of Trc-CQ interaction, IC50 values were derived from dose–response curves of fixed ratios of Trc and CQ for fractional inhibition concentration (FIC) determination according to an adaptation of the methods by Chawira and Warhust and Fivelman et al..
CQ at […] (2.0 µM) and 500.0 μM peptide were used to prepare doubling and quadrupling dilution ranges, respectively in supplemented RPMI-1640 culture medium used for culturing the P. falciparum, but lacking albumax II. These were then mixed in an chequerboard fashion to determine the 1:0; 0:1 1;1, 1:2; 1:5 and 1:10 ratios of CQ:peptide for combined IC50s. The CQ, peptide or drug:peptide combination (10 μL) was added to 90 μL of the cell suspensions, incubated for 48 h at 37 °C under an atmosphere of 3% CO2, 4% O2 and 93% N2 and analyzed for growth inhibition as previously described using the Malstat assay. The IC50 values and standard error of the mean for the various CQ-peptide combinations were determined from the dose–response curves plotted and analyzed using GraphPad Prism® 4.03 (GraphPad Software, San Diego, CA, USA). A minimum of three technical repeats and three biological repeats were carried out for each combination experiment.
Two fractional inhibition concentration (FIC) values were calculated for each of the five CQ-peptide combination ratios, one for CQ and the other for the peptide according to Equations (1) and (2) below from Bell:FICCQ = IC50([CQ] in combination)/IC50CQ ([CQ] alone)(1) FICPeptide = IC50 ([Peptide] in combination)/IC50Peptide ([Peptide] alone)(2)
The FIC values were used to compute the FIC index which is the sum of FICs of CQ and each peptide using Equation (3) below:FIC index = FICCQ + FICpeptide(3)
The magnitude of the FICI determined the nature of the CQ-peptide interaction as being either synergistic (FICI < 1.0), antagonistic (FICI > 1.0) or additive (FICI = 1.0) 64–66. […] The shape of the isobolograms also provided an indication of the nature of the interactive effect of CQ and the peptides with a concave curve for synergy, a linear line for an additive to non-interactive effect or convex curve for antagonism with deviation of the curves from the additivity line indicating the strength of the interactive effect.

The subject of a further test is CQS P. falciparum 3D7. The experiment in a line: microbe, parasite or virus in culture. Format: cell-based, Plasmodium falciparum. The method, then:
(§1) The antimalarial assays were carried out according to the method of Nkhoma et al.. […] On the day of the assay, the parasitemia was determined following observation by light microscopy after Giemsa staining of a thin blood smear from the culture. The cultures at young trophozoite stage were diluted to 2% parasitemia and 2% hematocrit by addition of fresh RPMI medium and uninfected erythrocytes. This culture suspension was distributed in 96-well culture plates at 90 µL/well. […] Peptide solvent and medium (10 µL/well) was used as sterility control and in growth control and 10 μL 1.0 mM GS was used as positive control. Assays were carried out in at least three biological repeats each consisting of three technical repeats to ascertain reproducibility.
(§2) The culture suspension was frozen away at −20 °C until determination of the residual lactate dehydrogenase activity of the parasites by the Malstat assay, as adapted from Gomez et al..
(§3) For the Malstat assay, the plates were transferred to −80 °C for 1 h following overnight storage at −20 °C to ensure that all the suspensions in each well of the 96-well plate were frozen. The plates were then thawed at room temperature. The Malstat reagent consisted of 200 μL Triton X-100, 2 g L-lactic acid (substrate), 0.66 g Tris-HCl buffer and 0.011 g of 3-acetylpyridine adenine dinucleotide (APAD) (coenzyme for parasite lactate dehydrogenase) in 100 mL analytical quality water set to a pH of 9.0 [93]. […] A 15 µL aliquot of the thawed and properly mixed suspension from the assay plates was added to 100 µL of the Malstat reagent, followed by addition of 25 µL of the NBT/PES solution. The reaction mixtures were then incubated at room temperature in the dark for 30 min followed by spectrophotometric measurement of the absorbance of the reduced APAD at 620 nm using a Model 680 Microplate reader from BioRad.
(§4) The data obtained from spectrophotometric measurement of the plates following the lactate dehydrogenase (Malstat) assay were converted to percentage growth inhibition using the data analysis method described by Rautenbach et al.. The background was obtained from control wells in which the parasites were killed with 100 µM GS while total growth was from the wells that were not submitted to peptides. […] The percentage COS-1 cell death (CellTiter Blue™ assay) was similarly calculated from absorbance values.

The test system of a further test is CQR P. falciparum Dd2. In words: microbe, parasite or virus in culture. The format is cell-based, Plasmodium falciparum. Particulars: for IC50: 48 h, Malstat, ± SEM, read-out: IC50, CQR P. falciparum Dd2; for Resistance Index IC50Dd2/IC503D7: first value of cell; for Resistance Index IC50Dd2/IC50D10: second value of cell. Here is the method: as §1, §2, §3, §4

Where [1] appears, read: CQ:peptide ratio 1:2 at IC50, D10.
Where [2] appears, read: CQ:peptide ratio 1:5 at IC50, D10.
The mark [3] stands for this setting: CQ:peptide ratio 1:10 at IC50, D10.
Setting [4] is: 48 h, Malstat, ± SEM, read-out: IC50, CQS P. falciparum 3D7.
The mark [5] stands for this setting: CQ:peptide ratio 1:1 at IC50, D10.

The IC50 is the midpoint of a concentration-inhibition curve.

Like-named read-outs stand apart in the source and are kept apart here. Square brackets hold non-standard residues; d marks the D form. Peptide text beside a SMILES is read from it. Orn = NCCC[C@H](N)C(=O)O Where only a bound is given, the exact number is not on record here.

Take `CC(C)C[C@@H]1NC(=O)[C@H](CCCN)NC(=O)[C@H](C(C)C)NC(=O)[C@H](Cc2ccccc2)NC(=O)[C@H](CCC(N)=O)NC(=O)[C@H](CC(N)=O)NC(=O)[C@@H](Cc2ccccc2)NC(=O)[C@H](Cc2ccccc2)NC(=O)[C@@H]2CCCN2C(=O)[C@@H](Cc2ccccc2)NC1=O` [PhcA, phenycidine A] (cyclo(FV[Orn]L[dF]PF[dF]NQ)): the “nature of CQ-peptide interaction” value in the test with CQI P. falciparum D10 is on record as “synergistic action”. The compound further registered an IC50 in the test on CQS P. falciparum 3D7 (CQS 3D7, 48 h) of 23 ± 7 nM. In the test on CQR P. falciparum Dd2, the IC50 was 511 ± 96 nM, the “Resistance Index IC50Dd2/IC503D7” value was found to be 22 and the “Resistance Index IC50Dd2/IC50D10” value was 10.

For the compound `CC(C)C[C@@H]1NC(=O)[C@H](CCCN)NC(=O)[C@H](C(C)C)NC(=O)[C@H](Cc2c[nH]c3ccccc23)NC(=O)[C@H](CCC(N)=O)NC(=O)[C@H](CC(N)=O)NC(=O)[C@@H](Cc2c[nH]c3ccccc23)NC(=O)[C@H](Cc2c[nH]c3ccccc23)NC(=O)[C@@H]2CCCN2C(=O)[C@@H](Cc2ccccc2)NC1=O` [TpcC, tryptocidine C] (cyclo(L[dF]PW[dW]NQWV[Orn])), in the test on CQI P. falciparum D10 (setting [1]), the “CQ FIC” value worked out at 0.36 ± 0.07, the “CQ:Peptide FIC Index” value was 1.26 ± 0.36 and the “Peptide FIC” value is on record as 0.90 ± 0.40. For the same compound, in the test with CQI P. falciparum D10 (setting [2]), the “CQ FIC” value is reported as 0.23 ± 0.08, the “CQ:Peptide FIC Index” value amounted to 1.47 ± 0.28 and the “Peptide FIC” value was 1.24 ± 0.26. Besides, in the test on CQI P. falciparum D10 (setting [3]), the “CQ FIC” value was 0.08 ± 0.03, the “CQ:Peptide FIC Index” value is recorded as 1.02 ± 0.17 and the “Peptide FIC” value is given as 0.93 ± 0.16. In the test with CQI P. falciparum D10, the “nature of CQ-peptide interaction” value is reported as “additive activity”. The IC50 in the test with CQS P. falciparum 3D7 (setting [4]) is 126 ± 28 nM. Moreover, in the test with CQR P. falciparum Dd2, the IC50 was 398 ± 94 nM, the “Resistance Index IC50Dd2/IC503D7” value is given as 3 and the “Resistance Index IC50Dd2/IC50D10” value amounted to 9.

As to `CC(C)C[C@@H]1NC(=O)[C@H](CCCN)NC(=O)[C@H](C(C)C)NC(=O)[C@H](Cc2ccc(O)cc2)NC(=O)[C@H](CCC(N)=O)NC(=O)[C@H](CC(N)=O)NC(=O)[C@@H](Cc2ccccc2)NC(=O)[C@H](Cc2ccccc2)NC(=O)[C@@H]2CCCN2C(=O)[C@@H](Cc2ccccc2)NC1=O` [TrcA, tyrocidine A] (cyclo(V[Orn]L[dF]PF[dF]NQY)), the “CQ FIC” value in the test with CQI P. falciparum D10 (setting [5]) was 1.77 ± 0.29; in the test on CQI P. falciparum D10 (setting [1]), 0.66 ± 0.02; in the test with CQI P. falciparum D10 (setting [3]), 0.13 ± 0.10. Also, the “CQ:Peptide FIC Index” value in the test with CQI P. falciparum D10 (setting [5]) was more than 3; with CQI P. falciparum D10 (CQ:peptide ratio 1:1 at IC50, D10, listed as Tyrocidine A), 3.76 ± 0.65; in the test with CQI P. falciparum D10 (setting [1]), 1.60 ± 0.20; in the test with CQI P. falciparum D10 (setting [3]), 1.35 ± 0.37. The “Peptide FIC” value with CQI P. falciparum D10 (setting [5]) came out at 1.99 ± 0.36; with CQI P. falciparum D10 (setting [1]), 0.95 ± 0.18; in the test with CQI P. falciparum D10 (setting [3]) it was 1.21 ± 0.29. For the same compound, the IC50 in the test with CQS P. falciparum 3D7 (setting [4]) is 41 ± 12 nM; with CQR P. falciparum Dd2, 1800 ± 319 nM.
